From PubChem BioAssay (NCI)
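Tested at 5 concentrations; 48 h exposure; 96-well plates; endpoints linearly interpolated, else capped at highest concentration. GI50 is the concentration that inhibits growth by half. At the TGI there is no net growth.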

What was measured:
Experiment in all cases: NCI tumour cell line growth inhibition, 48 h
MOLT-4 leukemia = test system: MOLT-4 leukemia
HOP-92 NSCLC = test system: HOP-92 NSCLC
NCI-H522 lung = test system: NCI-H522 lung
CCRF-CEM leukemia = test system: CCRF-CEM leukemia
COLO 205 colon = test system: COLO 205 colon
LOX IMVI melanoma = test system: LOX IMVI melanoma
HT29 colon = test system: HT29 colon
ACHN renal = test system: ACHN renal
RXF 393 renal = test system: RXF 393 renal
BT-549 breast = test system: BT-549 breast

Row | SMILES | GI50 (MOLT-4 leukemia) [µM] | TGI (MOLT-4 leukemia) [µM] | GI50 (HOP-92 NSCLC) [µM] | TGI (HOP-92 NSCLC) [µM] | GI50 (NCI-H522 lung) [µM] | TGI (NCI-H522 lung) [µM] | GI50 (CCRF-CEM leukemia) [µM] | TGI (CCRF-CEM leukemia) [µM] | GI50 (COLO 205 colon) [µM] | TGI (COLO 205 colon) [µM] | GI50 (LOX IMVI melanoma) [µM] | TGI (LOX IMVI melanoma) [µM] | GI50 (HT29 colon) [µM] | TGI (HT29 colon) [µM] | GI50 (ACHN renal) [µM] | TGI (ACHN renal) [µM] | GI50 (RXF 393 renal) [µM] | TGI (RXF 393 renal) [µM] | GI50 (BT-549 breast) [µM] | TGI (BT-549 breast) [µM]
1 | Cc1cccc2c1ccc1c3occ(C)c3c(=O)oc21 | 51.5 | > 100 | 49.9 | > 100 | > 100 | > 100 | > 100 | > 100 | > 100 | > 100 | 80.3 | > 100 | > 100 | > 100 | > 100 | > 100 |  |  |  | 
2 | O=C(O)CP(=O)(c1ccccc1)c1ccccc1.O=C(O)CP(=O)(c1ccccc1)c1ccccc1.[Cd] | 33.4 | 52.4 | 18.4 | 33.7 | 0.403 | 2.77 |  |  | 31.8 | > 100 |  |  | 18 | 37.3 | 16.1 | 30.4 | 68.8 | > 100 |  | 
3 | [O]=[W](=[O])([OH])[OH] | > 100 | > 100 | > 100 | > 100 | > 100 | > 100 | > 100 | > 100 | > 100 | > 100 |  |  | > 100 | > 100 | > 100 | > 100 | > 100 | > 100 | > 100 | > 100
4 | COC(=O)C(C(=O)C(=O)Nc1ccc([N+](=O)[O-])cc1)c1nc2cc(C)c(C)cc2[nH]c1=O (stereo not given) |  | > 100 |  | > 100 |  | > 100 |  | > 100 |  | > 100 |  | > 100 |  | > 100 |  | > 100 |  | > 100 |  | 
5 | CC(C)N(C(=O)C12C3C4C5C3C1(C#N)C5C42)C(C)C (stereo not given) |  | > 100 |  | > 100 |  | > 100 |  | > 100 |  | > 100 |  | > 100 |  | > 100 |  | > 100 |  |  |  | 
6 | O=C(Nc1ccc(Cl)cc1F)c1cc(Cl)ccc1O | 1.14 | 3.99 | 0.157 | 0.553 | 0.337 |  | 1.62 | > 44.9 | 2.41 | 5.92 |  |  | 3.2 | > 31.2 | 0.532 | > 88 | 0.437 | 4.73 | 0.379 | 2.04
7 | O=C(NCCCCCCNC(=O)NC1OCC(O)C(O)C1O)NC1OCC(O)C(O)C1O (stereo not given) |  | > 100 |  | > 100 |  | > 100 |  | > 100 |  | > 100 |  | > 100 |  | > 100 |  | > 100 |  | > 100 |  | 
8 | COc1ccc(NC(=O)CC(=O)n2nc(-c3ccccc3)c(N=Nc3ccccc3C)c2-c2ccccc2)cc1 |  | > 100 |  | 34.9 |  | 47.8 |  | > 100 |  | 99.8 |  | > 100 |  | > 100 |  | 63.7 |  | 33.4 |  | 
9 | CN1CCc2cc(O)c3cc2C1Cc1ccc(cc1)Oc1cc(ccc1O)CC1c2c(cc4c(c2O3)OCO4)CCN1C (stereo not given) |  | 85.4 |  |  |  |  |  | > 100 |  | 28.8 |  |  |  | 74.4 |  | > 100 |  | 60.2 |  | 
10 | CC(=O)OCc1c(C)c2ccccc2n1C(C)=O |  | 86.7 |  | > 100 |  | 39.2 |  | 73.6 |  | > 100 |  | > 100 |  | > 100 |  | 71 |  | 75.3 |  | 
11 | COc1cc2c3c(c1OCc1ccccc1)NCCC3NCC2 (stereo not given) |  | > 100 |  | > 100 |  | > 100 |  | > 100 |  | > 100 |  | > 100 |  | > 100 |  |  |  | > 100 |  | 
12 | Cc1ccc(S(=O)(=O)NC(=O)C#CCOC2CCCCO2)cc1 (stereo not given) |  | > 100 |  | > 100 |  |  |  | > 100 |  |  |  | > 100 |  | > 100 |  | > 100 |  | > 100 |  | 
13 | CCOC(=O)NN(C(=O)OCC)C(C(=O)c1ccc(Cl)cc1)=C1NCCN1 |  | > 100 |  | > 100 |  | > 100 |  | > 100 |  | > 100 |  | > 100 |  | > 100 |  | > 100 |  | > 100 |  | 
14 | CNC(=O)OCc1cc2ccncc2c2c1[nH]c1ccccc12 |  | > 85.3 |  | > 100 |  | > 100 |  | > 100 |  | > 100 |  | > 100 |  | > 100 |  | > 100 |  | 8.39 |  | 
15 | CCCC(=O)Nc1ncnc2c1ncn2C1OC2COP(=O)(O)OC2C1OC(=O)CCC (stereo not given) | > 1000 | > 1000 |  | > 1000 | > 1000 | > 1000 |  | > 1000 | > 1000 | > 1000 | > 1000 | > 1000 | > 1000 | > 1000 | > 1000 | > 1000 |  |  |  | > 1000
16 | COc1cc(CCNc2nc3cc(N)cc(N)c3nc2-c2ccccc2)cc(OC)c1 | 0.941 | 2.67 | 1.61 | 3.44 |  |  | 1.36 | 6.48 | 1.76 | 3.56 | 1.65 | 3.17 | 1.93 | 4.87 | 1.8 | 3.27 | 1.59 | 4.8 | 2.48 | 5.47
17 | Cc1cc2c(=O)c3ccccc3oc2c(C#N)c1C |  | > 100 |  | > 100 |  |  |  | > 100 |  | > 100 |  |  |  | > 100 |  | > 100 |  | > 100 |  | 
18 | N#CC(C#N)=Cc1ccc(Oc2ccccc2)cc1 |  | 98.4 |  |  |  | 61.6 |  | > 75.4 |  | > 100 |  | 30.8 |  | 56.1 |  | > 31.6 |  | > 100 |  | 
19 | O=C1CCCC(=O)C1C(=O)c1ccc(C(F)(F)F)cc1[N+](=O)[O-] | > 100 | > 100 |  |  | > 100 | > 100 | > 100 | > 100 | > 100 | > 100 |  |  | > 100 | > 100 | > 100 | > 100 |  |  | > 100 | > 100
